Source: patent US4983328A, “N-(4-(3-aminopropyl)aminobutyl)-2-(ω-gua nidino-fatty-acid-amido(-2-substituted-ethanamide, salt thereof, and process for preparation thereof” (Bristol-Myers Company, priority 1981, dated 1991)
≈ marks a conversion by molar mass, not a printed value. Where two headings read alike, the source gives them in different places.

Tests used:
[1] = chemical stability: retention (%) after heating at 60° C. for 4 hours, by HPLC; format: physicochemical
Method: The chemical stability of the present compound was evaluated by determining the retention (%) after heating at 60° C. for 4 hours. In Table 5 are shown the test results together with those for spergualin as reference. The retention was determined by means of high performance liquid chromatography (HPLC). The column was packed with Nucleosil® 5C18. The solvent used for spergualin was a mixture (6:94) of acetonitrile -0.01M sodium pentanesulfonate +0.01M Na2 HPO4 (pH 3), while that for the compounds of this invention was a mixture of acetonitrile -0.005M sodium pentanesulfonate ±0.01M Na2 HPO4 (pH 3). The mixture ratio in the latter case was varied for each particular compound. For instance, a mixing ratio of 10:90 was used for Compound No. 9, while that of 7:93 for Compound No. 22.

[2] = acute toxicity in mice (single intraperitoneal administration); conditions: mouse, in vivo, ip, read-out: LD50 (median lethal dose on single administration)
Method: In Table 8 median lethal doses (LD50) of typical compounds of this invention are shown, measured in mice upon single intraperitoneal administration, as well as maximum tolerated doses in terms of total dose when a fixed amount per unit body weight was administered intraperitoneally to mice once a day for 6 consecutive days.
*Median lethal dose on single administration.

[3] = tested on: mouse leukemia L-1210 cells; assay: growth inhibitory activity to cancer cells in vitro (L-1210, 48 hours); format: cell-based; conditions: for inhibition at 5 µg/mL: L1210, 5 mcg/ml; for inhibition at 5 µg/mL / inhibition at 10 µg/mL / inhibition at 20 µg/mL / inhibition at 40 µg/mL / inhibition at 80 µg/mL / inhibition at 2.5 µg/mL / inhibition at 1.25 µg/mL: read-out: Growth inhibition (%), (1-T/C) × 100; for inhibition at 10 µg/mL: L1210, 10 mcg/ml; for inhibition at 20 µg/mL: L1210, 20 mcg/ml; for inhibition at 40 µg/mL: L1210, 40 mcg/ml; for inhibition at 80 µg/mL: L1210, 80 mcg/ml; for IC50: L1210, L-1210 cells, read-out: 50% inhibitory concentration; for inhibition at 2.5 µg/mL: L1210, 2.5 mcg/ml; for inhibition at 1.25 µg/mL: L1210, 1.25 mcg/ml
Summary of the method: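 L-1210 cells from DBA/2 mouse ascites, cultured at 5×10^4 cells per well in RPMI 1640 with 10% FCS and 5 μM 2-mercaptoethanol, 37° C, CO2, for 48 h with compound. Cell counts by Coulter Counter gave % inhibition (1−T/C)×100, and IC50 was derived across concentrations.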

[4] = cumulative toxicity in mice (maximum tolerated dose, once a day for 6 consecutive days); conditions: mouse, in vivo, ip, i.p. once a day for 6 consecutive days, total dose, read-out: Maximum Tolerated Dose (total dose not causing death)
Summary of the method: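 Mice dosed intraperitoneally once a day for 6 consecutive days with a fixed amount per unit body weight. The value is the maximum total dose not causing death.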

mouse leukemia L-1210 = assay: therapeutic effect on implanted cancer in mice (L-1210, survival over 30 days); format: in vivo, mouse (BDF1); conditions: L1210, ip, 720 h, 6 days; for responders at 6.25 mg/kg / response vs control in vivo at 6.25 mg/kg: 6.25 mg/kg/day i.p.; for responders at 12.5 mg/kg / response vs control in vivo at 12.5 mg/kg: 12.5 mg/kg/day i.p.; for responders at 25 mg/kg / response vs control in vivo at 25 mg/kg: 25 mg/kg/day i.p.; for responders at 50 mg/kg / response vs control in vivo at 50 mg/kg: 50 mg/kg/day i.p.
Summary of the method: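 Male BDF1 mice aged 5 weeks received an intraperitoneal inoculation of 10^5 L-1210 mouse leukemia cells. Starting on the inoculation day, test compounds dissolved in physiological saline were injected intraperitoneally once daily for 6 consecutive days, and animals were then followed for 30 days to record survival.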

[5] = read-out: Number of mice survived for 30 days (converted)
[6] = read-out: Prolongation of survival period (%), T/C × 100

Compound	remaining at 4 h ([1]; pH 2, pH 2) [%]	remaining at 4 h ([1]; pH 3, pH 3) [%]	remaining at 4 h ([1]; pH 4, pH 4) [%]	remaining at 4 h ([1]; pH 6, pH 6) [%]	remaining at 4 h ([1]; pH 8, pH 8) [%]	remaining at 4 h ([1]; pH 9, pH 9) [%]	remaining at 4 h ([1]; pH 10, pH 10) [%]	LD50 ([2]; mice, single i.p.) [mg/kg]	inhibition at 5 µg/mL [3] [%]	inhibition at 10 µg/mL [3] [%]	inhibition at 20 µg/mL [3] [%]	inhibition at 40 µg/mL [3] [%]	inhibition at 80 µg/mL [3] [%]	IC50 [3] [µg/mL]	MTD [4] [mg/kg]	remaining at 4 h ([1]; pH 5, pH 5) [%]	remaining at 4 h ([1]; pH 7, pH 7) [%]	LD50 [2] [mg/kg]	inhibition at 2.5 µg/mL [3] [%]	responders at 6.25 mg/kg (mouse leukemia L-1210; [5]) [%]	other results
N=C(N)NCCCCCCC(=O)NC(OCCO)C(=O)NCCCCNCCCN (stereo not shown) [Compound 14, N-[4-(3-aminopropyl)aminobutyl]-2-(7-guanidinoheptanamido)-2-(2-hydroxy)ethoxyethanamide]	71.8	90.6	100	100	100	97.5	97.3	25 to 50	22.3	24.6	29.9	42.7	58.6	52 (≈ 120 µM)	> 150	–	–	–	–	–	–
N=C(N)NCCCC[C@H](O)CC(=O)NC(OCCO)C(=O)NCCCCNCCCN (stereo partly shown) [Compound 25, N-[4-(3-aminopropyl)aminobutyl]-2-(7-guanidino-3-hydroxyheptanamido)-2-(2-hydroxy)ethoxyethanamide]	68.9	–	100	100	100	97.7	95.5	–	20	42	63.5	74.7	–	7.2 (≈ 16.1 µM)	> 300	100	100	> 50	9	0	response vs control in vivo at 6.25 mg/kg (mouse leukemia L-1210; [6]): 107%; responders at 12.5 mg/kg (mouse leukemia L-1210; [5]): 0%; response vs control in vivo at 12.5 mg/kg (mouse leukemia L-1210; [6]): 193%; responders at 25 mg/kg (mouse leukemia L-1210; [5]): 0%; response vs control in vivo at 25 mg/kg (mouse leukemia L-1210; [6]): 229%; responders at 50 mg/kg (mouse leukemia L-1210; [5]): 100%; response vs control in vivo at 50 mg/kg (mouse leukemia L-1210; [6]): > 429%
N=C(N)NCCCCCCC(=O)NC(OCc1ccccc1)C(=O)NCCCCNCCCN (stereo not shown) [Compound 15, N-[4-(3-aminopropyl)aminobutyl]-2-(7-guanidinoheptanamido)-2-benzyloxyethanamide]	76.5	91.4	100	100	100	99	96.2	12.5 to 25	71	94.5	97.7	100	–	3.1 (≈ 6.49 µM)	> 75	–	–	–	39	–	inhibition at 1.25 µg/mL [3]: 27.1%
N=C(N)NCCCC[C@H](O)CC(=O)NC(OCc1ccccc1)C(=O)NCCCCNCCCN (stereo partly shown) [Compound 26, N-[4-(3-aminopropyl)aminobutyl]-2-(7-guanidino-3-hydroxyheptanamido)-2-benzyloxyethanamide]	77.2	–	100	100	100	95.9	94.5	–	79	90.2	96.6	97.3	–	2.2 (≈ 4.46 µM)	> 75	100	100	12.5 to 25	54.2	–	–
N=C(N)NCCCCCCC(O)CC(=O)NC(O)C(=O)NCCCCNCCCN (stereo not shown) [Compound 21, N-[4-(3-aminopropyl)aminobutyl]-2-(9-guanidino-3-hydroxynonanamido)-2-hydroxyethanamide]	–	–	–	–	–	–	–	25 to 50	29.7	37.5	51.6	84	94.5	18 (≈ 41.7 µM)	> 150	–	–	–	21.5	0	inhibition at 1.25 µg/mL [3]: 14.6%; responders at 0.2 mg/kg (mouse leukemia L-1210; 0.20 mg/kg/day i.p., read-out: Number of mice survived for 30 days (converted)): 0%; response vs control in vivo at 0.2 mg/kg (mouse leukemia L-1210; 0.20 mg/kg/day i.p., read-out: Prolongation of survival period (%), T/C × 100): 100%; responders at 0.39 mg/kg (mouse leukemia L-1210; 0.39 mg/kg/day i.p., read-out: Number of mice survived for 30 days (converted)): 0%; response vs control in vivo at 0.39 mg/kg (mouse leukemia L-1210; 0.39 mg/kg/day i.p., read-out: Prolongation of survival period (%), T/C × 100): 100%; responders at 0.78 mg/kg (mouse leukemia L-1210; 0.78 mg/kg/day i.p., read-out: Number of mice survived for 30 days (converted)): 0%; response vs control in vivo at 0.78 mg/kg (mouse leukemia L-1210; 0.78 mg/kg/day i.p., read-out: Prolongation of survival period (%), T/C × 100): 100%; responders at 1.56 mg/kg (mouse leukemia L-1210; 1.56 mg/kg/day i.p., read-out: Number of mice survived for 30 days (converted)): 0%; response vs control in vivo at 1.56 mg/kg (mouse leukemia L-1210; 1.56 mg/kg/day i.p., read-out: Prolongation of survival period (%), T/C × 100): 114%; responders at 3.13 mg/kg (mouse leukemia L-1210; 3.13 mg/kg/day i.p., read-out: Number of mice survived for 30 days (converted)): 0%; response vs control in vivo at 3.13 mg/kg (mouse leukemia L-1210; 3.13 mg/kg/day i.p., read-out: Prolongation of survival period (%), T/C × 100): 129%; response vs control in vivo at 6.25 mg/kg (mouse leukemia L-1210; [6]): 164%; responders at 12.5 mg/kg (mouse leukemia L-1210; [5]): 0%; response vs control in vivo at 12.5 mg/kg (mouse leukemia L-1210; [6]): 200%; responders at 25 mg/kg (mouse leukemia L-1210; [5]): 0%; response vs control in vivo at 25 mg/kg (mouse leukemia L-1210; [6]): 229%; responders at 50 mg/kg (mouse leukemia L-1210; [5]): 0%; response vs control in vivo at 50 mg/kg (mouse leukemia L-1210; [6]): 0%
CCCCOC(NC(=O)C[C@@H](O)CCCCNC(=N)N)C(=O)NCCCCNCCCN (stereo partly shown) [Compound 24, N-[4-(3-aminopropyl)aminobutyl]-2-(7-guanidino-3-hydroxyheptanamido)-2-butoxyethanamide]	76.3	–	100	100	100	97.1	94.8	> 50	75.6	89.5	95	97.2	–	2.6 (≈ 5.66 µM)	> 300	100	100	–	47.3	–	–
